In patent US20260256799A1, “INHIBITORS FOR TREATING SOLID TUMOURS” (UNIVERSITY OF SOUTHAMPTON, priority 2023, published 2026):

Tested on: MLF
Assay: TGF-β1-induced myofibroblast differentiation of mouse lung fibroblasts
Type: cell-based
Experimental: Human NSCLC cell line H441, HNSCC SCC25, murine cancer cell line TC-1 (lung), MC38 (colon) and human fetal foreskin fibroblasts HFFF2 were purchased from European Collection of Cell Cultures (Public Health England) or ATCC; HNSCC 5PT [32] were provided by l. Mackenzie (Queen Mary University of London, UK). HEK-293T cells and IMR90 lung fibroblasts were provided by Jesus Gil (Imperial College, London, UK). SCC25 were grown in Ham's F12:DMEM (1:1 ratio) medium with 10% FBS (Calbiochem) and 292 μg/ml L-Glutamine. 5PT were cultured in keratinocyte growth medium. HEK-293T, H441, MC38, HFFF2, IMR90 and primary fibroblasts were grown in DMEM supplemented with 10% FBS and 292 μg/ml L-Glutamine. Primary fibroblasts were isolated as previously used at early passage (p1-10). C57BL/6 murine normal lung and colon fibroblasts (MLF and MCF respectively) were grown at 3% oxygen. TC-1 were cultured in RPMI supplemented with 10% FBS and 292 μg/ml L-Glutamine. All cell cultures were routinely tested for mycoplasma contamination. All cells were cultured using standard cell culture plates/flasks (Corning). HFFF2 or IMR90 cells were transfected with 25 μM On-Target pool siRNA (Thermo Scientific/Dharmacon) using Oligofectamine reagent (Life Technologies) as described. Stable knockdown was performed using retro/lentiviral mediated transduction of shRNA plasmids, as previously described followed by cell selection using 1 μg/ml puromycin for 5-7 days. NOX4-inducible HEK-293 cells (kindly provided by Vincent Jaquet) were treated with 1 μg/ml doxycycline. […]
5×10^3 HFFF2 were plated on permanox chamber slides (Thermo Scientific) and treated as described in the figure legends. […] Images were taken using an Olympus IX81 fluorescence microscope and Xcellence program. DNA Damage foci were quantified from at least 8 non-overlapping FoV with ~300 cells in total per condition. […] SMA and Collagen 1A1 quantification was performed using Fiji. […]

[1] = AZD0156 0.5 μM + TGF-β1 for a week, Q-RT-PCR

CN(C)CCCOc1ccc(-c2ccc3ncc4c(c3c2)n(C2CCOCC2)c(=O)n4C)cn1 [AZD0156]
myofibroblast differentiation in vitro (AZD0156 0.5 μM + TGF-β1, 72 hours (Western) or 7 days (Collagen1, Fibronectin)): suppressed
effect on iCAF genes [1]: gene-specific and generally non-significant
myoCAF genes expression [1]: significantly down-regulated
